Measured values reported in ChEMBL document CHEMBL3526023 (Drug Metab Dispos, 2011).
Values belong to the molecule of their own block, whether it stands above or below them.

Key:
[1] = target: T1, UDP-glucuronosyltransferase 2B7 (Homo sapiens, UniProt P16662); test: Uncompetitive substrate inhibition of UGT2B7 in diabetic human liver microsomes assessed as reduction in enzyme-mediated mycophenolic acid acyl glucuronide formation by HPLC and LC-MS/MS method; assay type: ADME
T1 sequence (P16662 whole entry): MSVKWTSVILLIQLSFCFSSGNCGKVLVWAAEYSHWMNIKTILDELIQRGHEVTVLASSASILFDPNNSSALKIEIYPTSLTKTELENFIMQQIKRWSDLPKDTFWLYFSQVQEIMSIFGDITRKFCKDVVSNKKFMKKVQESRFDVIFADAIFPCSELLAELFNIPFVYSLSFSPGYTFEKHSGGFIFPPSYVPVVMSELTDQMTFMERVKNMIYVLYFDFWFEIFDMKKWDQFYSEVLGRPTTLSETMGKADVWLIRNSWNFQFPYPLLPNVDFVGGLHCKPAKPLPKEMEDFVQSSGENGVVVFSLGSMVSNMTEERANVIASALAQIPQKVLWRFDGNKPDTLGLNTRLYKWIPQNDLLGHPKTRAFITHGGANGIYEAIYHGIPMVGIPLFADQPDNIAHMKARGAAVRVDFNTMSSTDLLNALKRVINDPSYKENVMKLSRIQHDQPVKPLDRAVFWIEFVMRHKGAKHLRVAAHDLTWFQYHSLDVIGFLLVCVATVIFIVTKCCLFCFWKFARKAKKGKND

[2] = target: T1, UDP-glucuronosyltransferase 2B7; test: Uncompetitive substrate inhibition of UGT2B7 in non-diabetic human kidney microsomes assessed as reduction in enzyme-mediated mycophenolic acid acyl glucuronide formation by HPLC and LC-MS/MS method; assay type: ADME
[3] = target: T1, UDP-glucuronosyltransferase 2B7; test: Drug metabolism in diabetic human kidney microsomes assessed as UGT2B7-mediated mycophenolic acid phenolic 7-O-glucuronide formation per pmol protein by HPLC and LC-MS/MS method; assay type: ADME
[4] = target: T1, UDP-glucuronosyltransferase 2B7; test: Drug metabolism in diabetic human liver microsomes assessed as UGT2B7-mediated mycophenolic acid acyl glucuronide formation per pmol protein by HPLC and LC-MS/MS method; assay type: ADME
[5] = target: T1, UDP-glucuronosyltransferase 2B7; test: Ratio of Vmax to Km in non-diabetic human kidney microsomes assessed as UGT2B7-mediated mycophenolic acid acyl glucuronide formation per pmol protein by HPLC and LC-MS/MS method; assay type: ADME
[6] = target: T1, UDP-glucuronosyltransferase 2B7; test: Ratio of Vmax to Km in non-diabetic human liver microsomes assessed as UGT2B7-mediated mycophenolic acid phenolic 7-O-glucuronide formation per pmol protein by HPLC and LC-MS/MS method; assay type: ADME
[7] = target: T1, UDP-glucuronosyltransferase 2B7; test: Uncompetitive substrate inhibition of UGT2B7 in diabetic human liver microsomes assessed as reduction in enzyme-mediated mycophenolic acid phenolic 7-O-glucuronide formation by HPLC and LC-MS/MS method; assay type: ADME
[8] = target: T1, UDP-glucuronosyltransferase 2B7; test: Drug metabolism in diabetic human liver microsomes assessed as UGT2B7-mediated mycophenolic acid phenolic 7-O-glucuronide formation per pmol protein by HPLC and LC-MS/MS method; assay type: ADME
[9] = target: T1, UDP-glucuronosyltransferase 2B7; test: Ratio of Vmax to Km in diabetic human liver microsomes assessed as UGT2B7-mediated mycophenolic acid phenolic 7-O-glucuronide formation per pmol protein by HPLC and LC-MS/MS method; assay type: ADME
[10] = target: T1, UDP-glucuronosyltransferase 2B7; test: Drug metabolism in non-diabetic human liver microsomes assessed as UGT2B7-mediated mycophenolic acid phenolic 7-O-glucuronide formation per pmol protein by HPLC and LC-MS/MS method; assay type: ADME
[11] = target: T1, UDP-glucuronosyltransferase 2B7; test: Uncompetitive substrate inhibition of UGT2B7 in non-diabetic human kidney microsomes assessed as reduction in enzyme-mediated mycophenolic acid phenolic 7-O-glucuronide formation by HPLC and LC-MS/MS method; assay type: ADME
[12] = target: T1, UDP-glucuronosyltransferase 2B7; test: Uncompetitive substrate inhibition of UGT2B7 in non-diabetic human liver microsomes assessed as reduction in enzyme-mediated mycophenolic acid acyl glucuronide formation by HPLC and LC-MS/MS method; assay type: ADME
[13] = target: T1, UDP-glucuronosyltransferase 2B7; test: Ratio of Vmax to Km in non-diabetic human kidney microsomes assessed as UGT2B7-mediated mycophenolic acid phenolic 7-O-glucuronide formation per pmol protein by HPLC and LC-MS/MS method; assay type: ADME
[14] = target: T1, UDP-glucuronosyltransferase 2B7; test: Uncompetitive substrate inhibition of UGT2B7 in diabetic human kidney microsomes assessed as reduction in enzyme-mediated mycophenolic acid phenolic 7-O-glucuronide formation by HPLC and LC-MS/MS method; assay type: ADME
[15] = target: T1, UDP-glucuronosyltransferase 2B7; test: Ratio of Vmax to Km in non-diabetic human liver microsomes assessed as UGT2B7-mediated mycophenolic acid acyl glucuronide formation per pmol protein by HPLC and LC-MS/MS method; assay type: ADME
[16] = target: T1, UDP-glucuronosyltransferase 2B7; test: Drug metabolism in non-diabetic human liver microsomes assessed as UGT2B7-mediated mycophenolic acid acyl glucuronide formation per pmol protein by HPLC and LC-MS/MS method; assay type: ADME
[17] = target: T1, UDP-glucuronosyltransferase 2B7; test: Ratio of Vmax to Km in diabetic human liver microsomes assessed as UGT2B7-mediated mycophenolic acid acyl glucuronide formation per pmol protein by HPLC and LC-MS/MS method; assay type: ADME
[18] = target: T1, UDP-glucuronosyltransferase 2B7; test: Ratio of Vmax to Km in diabetic human kidney microsomes assessed as UGT2B7-mediated mycophenolic acid phenolic 7-O-glucuronide formation per pmol protein by HPLC and LC-MS/MS method; assay type: ADME
[19] = target: T1, UDP-glucuronosyltransferase 2B7; test: Ratio of Vmax to Km in diabetic human kidney microsomes assessed as UGT2B7-mediated mycophenolic acid acyl glucuronide formation per pmol protein by HPLC and LC-MS/MS method; assay type: ADME
[20] = target: T1, UDP-glucuronosyltransferase 2B7; test: Drug metabolism in diabetic human kidney microsomes assessed as UGT2B7-mediated mycophenolic acid acyl glucuronide formation per pmol protein by HPLC and LC-MS/MS method; assay type: ADME
[21] = target: T1, UDP-glucuronosyltransferase 2B7; test: Drug metabolism in non-diabetic human kidney microsomes assessed as UGT2B7-mediated mycophenolic acid phenolic 7-O-glucuronide formation per pmol protein by HPLC and LC-MS/MS method; assay type: ADME
[22] = target: T1, UDP-glucuronosyltransferase 2B7; test: Uncompetitive substrate inhibition of UGT2B7 in diabetic human kidney microsomes assessed as reduction in enzyme-mediated mycophenolic acid acyl glucuronide formation by HPLC and LC-MS/MS method; assay type: ADME
[23] = target: T1, UDP-glucuronosyltransferase 2B7; test: Uncompetitive substrate inhibition of UGT2B7 in non-diabetic human liver microsomes assessed as reduction in enzyme-mediated mycophenolic acid phenolic 7-O-glucuronide formation by HPLC and LC-MS/MS method; assay type: ADME
[24] = target: T1, UDP-glucuronosyltransferase 2B7; details: microsomes
[25] = target: T1, UDP-glucuronosyltransferase 2B7; details: microsomes; remark: listed apart in the source
[26] = target: T1, UDP-glucuronosyltransferase 2B7; test: Drug metabolism in non-diabetic human kidney microsomes assessed as UGT2B7-mediated zidovudine glucuronide formation per pmol protein by HPLC and LC-MS/MS method; assay type: ADME
[27] = target: T1, UDP-glucuronosyltransferase 2B7; details: microsomes; remark: listed apart in the source
[28] = target: T1, UDP-glucuronosyltransferase 2B7; test: Ratio of Vmax to Km in diabetic human liver microsomes assessed as UGT2B7-mediated zidovudine glucuronide formation per pmol protein by HPLC and LC-MS/MS method; assay type: ADME
[29] = target: T1, UDP-glucuronosyltransferase 2B7; details: microsomes; remark: listed apart in the source
[30] = target: T1, UDP-glucuronosyltransferase 2B7; test: Drug metabolism in diabetic human liver microsomes assessed as UGT2B7-mediated zidovudine glucuronide formation per pmol protein by HPLC and LC-MS/MS method; assay type: ADME
[31] = target: T1, UDP-glucuronosyltransferase 2B7; test: Drug metabolism in diabetic human kidney microsomes assessed as UGT2B7-mediated zidovudine glucuronide formation per pmol protein by HPLC and LC-MS/MS method; assay type: ADME
[32] = target: T1, UDP-glucuronosyltransferase 2B7; test: Drug metabolism in non-diabetic human liver microsomes assessed as UGT2B7-mediated zidovudine glucuronide formation per pmol protein by HPLC and LC-MS/MS method; assay type: ADME
[33] = substrate: COc1c(C)c2c(c(O)c1C/C=C(\C)CCC(=O)O)C(=O)OC2; test: Drug metabolism in non-diabetic human liver microsomes assessed as UGT2B7-mediated mycophenolic acid acyl glucuronide formation by HPLC and LC-MS/MS method; assay type: ADME
[34] = substrate: COc1c(C)c2c(c(O)c1C/C=C(\C)CCC(=O)O)C(=O)OC2; test: Drug metabolism in diabetic human liver microsomes assessed as UGT2B7-mediated mycophenolic acid acyl glucuronide formation by HPLC and LC-MS/MS method; assay type: ADME
[35] = substrate: COc1c(C)c2c(c(O)c1C/C=C(\C)CCC(=O)O)C(=O)OC2; test: Drug metabolism in diabetic human kidney microsomes assessed as UGT2B7-mediated mycophenolic acid phenolic 7-O-glucuronide formation by HPLC and LC-MS/MS method; assay type: ADME
[36] = substrate: COc1c(C)c2c(c(O)c1C/C=C(\C)CCC(=O)O)C(=O)OC2; test: Drug metabolism in diabetic human liver microsomes assessed as UGT2B7-mediated mycophenolic acid phenolic 7-O-glucuronide formation by HPLC and LC-MS/MS method; assay type: ADME
[37] = substrate: COc1c(C)c2c(c(O)c1C/C=C(\C)CCC(=O)O)C(=O)OC2; test: Drug metabolism in non-diabetic human kidney microsomes assessed as UGT2B7-mediated mycophenolic acid phenolic 7-O-glucuronide formation by HPLC and LC-MS/MS method; assay type: ADME
[38] = substrate: COc1c(C)c2c(c(O)c1C/C=C(\C)CCC(=O)O)C(=O)OC2; test: Drug metabolism in diabetic human kidney microsomes assessed as UGT2B7-mediated mycophenolic acid acyl glucuronide formation by HPLC and LC-MS/MS method; assay type: ADME
[39] = substrate: COc1c(C)c2c(c(O)c1C/C=C(\C)CCC(=O)O)C(=O)OC2; test: Drug metabolism in non-diabetic human kidney microsomes assessed as UGT2B7-mediated mycophenolic acid acyl glucuronide formation by HPLC and LC-MS/MS method; assay type: ADME
[40] = substrate: COc1c(C)c2c(c(O)c1C/C=C(\C)CCC(=O)O)C(=O)OC2; test: Drug metabolism in non-diabetic human liver microsomes assessed as UGT2B7-mediated mycophenolic acid phenolic 7-O-glucuronide formation by HPLC and LC-MS/MS method; assay type: ADME

Ki [1]: 2000 nM | Ki [2]: 2000 nM | Vmax [3]: 38.8 pmol/min | Vmax [4]: 0.76 pmol/min | Vmax/Km [5]: 0.41 nL/min | Vmax/Km [6]: 22.9 nL/min | Ki [7]: 1500 nM | Vmax [8]: 15.7 pmol/min | Vmax/Km [9]: 31.3 nL/min | Vmax [10]: 10.6 pmol/min | Ki [11]: 1500 nM | Ki [12]: 2000 nM | Vmax/Km [13]: 27.6 nL/min | Ki [14]: 1500 nM | Vmax/Km [15]: 4.08 nL/min | Vmax [16]: 2.43 pmol/min | Vmax/Km [17]: 1.51 nL/min | Vmax/Km [18]: 34.1 nL/min | Vmax/Km [19]: 0.12 nL/min | Vmax [20]: 0.43 pmol/min | Vmax [21]: 26.4 pmol/min | Ki [22]: 2000 nM | Ki [23]: 1500 nM
Molecule: COc1c(C)c2c(c(O)c1C/C=C(\C)CCC(=O)O)C(=O)OC2 [MYCOPHENOLIC ACID]

Km [24]: 330 µM | Km [25]: 519 µM | Vmax [26]: 20.5 pmol/min | Km [27]: 307 µM | Vmax/Km [28]: 0.87 nL/min | Km [29]: 519 µM | Vmax [30]: 274 pmol/min | Vmax [31]: 6.52 pmol/min | Vmax [32]: 1214 pmol/min
Molecule: Cc1cn([C@H]2C[C@H](N=[N+]=[N-])[C@@H](CO)O2)c(=O)[nH]c1=O [ZIDOVUDINE]

B1: UDP-glucuronosyltransferase 2B7 (Homo sapiens) (protein)
chain: T1 sequence (P16662 whole entry)
Km [33]: 601 µM | Km [34]: 502 µM | Km [35]: 1160 µM | Km [36]: 482 µM | Km [37]: 1010 µM | Km [38]: 3430 µM | Km [39]: 3010 µM | Km [40]: 454 µM
